Assay results as given in ChEMBL document CHEMBL1687911, “Design, synthesis, and biological evaluation of novel carbohydrate-based sulfamates as carbonic anhydrase inhibitors” (J Med Chem, 2011).

Molecular target: Carbonic anhydrase 9 (Homo sapiens, UniProt Q16790)
Assay: Inhibition of human carbonic anhydrase 9 catalytic domain by CO2 hydration assay

Row | Compound | Ki [nM]
1 | CC(=O)O[C@@H]1O[C@H](COS(N)(=O)=O)[C@@H](OC(C)=O)[C@H](OC(C)=O)[C@H]1OC(C)=O | 73
2 | CCC(=O)O[C@@H]1O[C@H](COS(N)(=O)=O)[C@@H](OC(=O)CC)[C@H](OC(=O)CC)[C@H]1OC(=O)CC | 77
3 | CC(=O)O[C@@H]1O[C@H](COS(N)(=O)=O)[C@H](OC(C)=O)[C@H](OC(C)=O)[C@H]1OC(C)=O | 75
4 | NS(=O)(=O)OC[C@H]1OC(O)[C@@H](O)[C@@H](O)[C@@H]1O (some centres not stated) | 53
5 | CO[C@H]1O[C@H](COS(N)(=O)=O)[C@@H](O)[C@H](O)[C@H]1O | 9
6 | CC(=O)OC[C@H]1O[C@@H](S(N)(=O)=O)[C@H](OC(C)=O)[C@@H](OC(C)=O)[C@H]1OC(C)=O | 4150

The remaining compounds from weak to strong by Ki, led by results:

Row | Ki [nM] | Compound
7 | 631 | CC(=O)OC[C@H]1O[C@@H](OC(C)=O)[C@H](OC(C)=O)[C@@H](OC(C)=O)[C@@H]1O[C@H]1O[C@H](COS(N)(=O)=O)[C@@H](OC(C)=O)[C@H](OC(C)=O)[C@H]1OC(C)=O
8 | 497 | NS(=O)(=O)OC[C@H]1O[C@H](O[C@H]2[C@H](O)[C@@H](O)[C@H](O)O[C@@H]2CO)[C@H](O)[C@@H](O)[C@@H]1O
9 | 62 | NS(=O)(=O)OC[C@H]1OC(O)[C@H](O)[C@@H](O)[C@H]1O (some centres not stated)
10 | 8.6 | NS(=O)(=O)OC[C@H]1OC(O)[C@H](O)[C@@H](O)[C@@H]1O (some centres not stated)
11 | 8.4 | CO[C@H]1O[C@H](COS(N)(=O)=O)[C@@H](OC(C)=O)[C@H](OC(C)=O)[C@H]1OC(C)=O
12 | 7.8 | CC(=O)O[C@@H]1O[C@H](COS(N)(=O)=O)[C@@H](OC(C)=O)[C@H](OC(C)=O)[C@@H]1OC(C)=O
